EC50, IC50 and AC50 data for four compounds are collected here from ChEMBL document CHEMBL1201862, “PubChem BioAssay data set” (2004).

In general, EC50 refers to the concentration at which the effect is half-maximal. As a reminder, the IC50 is the concentration at which inhibition is half-maximal. For orientation: AC50 means the concentration at which the activity in the assay is half-maximal.

A short description of test [1]: Luminescence Cell-Based Dose Response HTS to Identify Inhibitors of 5'UTR Stem-Loop Driven Prion Protein mRNA Translation in H4 Neuroglioblastoma Cells. [Related pubchem assays: 1827 (Project Summary), 1813 (Primary HTS)]. Type of test: functional.
Test [2] addresses T1, Zinc finger protein mex-5 (Caenorhabditis elegans, UniProt Q9XUB2).
T1 sequence (Q9XUB2 whole entry): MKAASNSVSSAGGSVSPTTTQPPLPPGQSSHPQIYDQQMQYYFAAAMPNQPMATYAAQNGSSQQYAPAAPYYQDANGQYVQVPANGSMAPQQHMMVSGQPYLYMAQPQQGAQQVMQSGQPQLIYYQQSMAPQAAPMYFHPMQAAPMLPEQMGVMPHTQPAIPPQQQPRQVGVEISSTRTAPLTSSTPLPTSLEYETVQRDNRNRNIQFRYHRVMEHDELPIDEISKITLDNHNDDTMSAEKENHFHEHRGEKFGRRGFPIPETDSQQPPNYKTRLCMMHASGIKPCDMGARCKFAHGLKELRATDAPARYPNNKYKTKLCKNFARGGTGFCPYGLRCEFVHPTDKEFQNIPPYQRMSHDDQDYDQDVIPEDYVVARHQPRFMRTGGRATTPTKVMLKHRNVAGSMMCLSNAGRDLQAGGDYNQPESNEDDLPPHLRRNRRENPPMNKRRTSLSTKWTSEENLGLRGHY
Put plainly: MEX-5/TCR-2 RNA interaction inhibitors, dose response, biochemical, C. elegans, fluorescence polarization (AID 1960). A general note: In fluorescence polarisation assays a small probe gives low polarisation when free and higher when bound to something large.

Test [3] can be described thus: cytotoxicity toward NIH3T3 fibroblasts, dose response, counter-screen, cell-based, ATP luminescence, mouse fibroblasts (AID 2010).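 Further: cells exposed to compound for about 90 hours before reading.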 In kind it is functional. On the technique in general: The purpose of a counterscreen is to sort out artefacts and off-target activity.
The target in test [4] is Induced myeloid leukemia cell differentiation protein Mcl-1 (Homo sapiens, UniProt Q07820). Type of test: functional.
In test [5] the test system is Streptococcus. In words: Group A Streptococcus viability loss, dose response, counter-screen for streptokinase expression inhibitor project, luminescence, BacTiterGlo (AID 1915).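 Further: potency for reduction of bacterial viability or growth.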 In kind it is functional, organism-based.
For test [6], the target named is T2, Replicative DNA helicase DnaB (Mycobacterium tuberculosis, UniProt P9WMR3).
T2 sequence (P9WMR3 whole entry): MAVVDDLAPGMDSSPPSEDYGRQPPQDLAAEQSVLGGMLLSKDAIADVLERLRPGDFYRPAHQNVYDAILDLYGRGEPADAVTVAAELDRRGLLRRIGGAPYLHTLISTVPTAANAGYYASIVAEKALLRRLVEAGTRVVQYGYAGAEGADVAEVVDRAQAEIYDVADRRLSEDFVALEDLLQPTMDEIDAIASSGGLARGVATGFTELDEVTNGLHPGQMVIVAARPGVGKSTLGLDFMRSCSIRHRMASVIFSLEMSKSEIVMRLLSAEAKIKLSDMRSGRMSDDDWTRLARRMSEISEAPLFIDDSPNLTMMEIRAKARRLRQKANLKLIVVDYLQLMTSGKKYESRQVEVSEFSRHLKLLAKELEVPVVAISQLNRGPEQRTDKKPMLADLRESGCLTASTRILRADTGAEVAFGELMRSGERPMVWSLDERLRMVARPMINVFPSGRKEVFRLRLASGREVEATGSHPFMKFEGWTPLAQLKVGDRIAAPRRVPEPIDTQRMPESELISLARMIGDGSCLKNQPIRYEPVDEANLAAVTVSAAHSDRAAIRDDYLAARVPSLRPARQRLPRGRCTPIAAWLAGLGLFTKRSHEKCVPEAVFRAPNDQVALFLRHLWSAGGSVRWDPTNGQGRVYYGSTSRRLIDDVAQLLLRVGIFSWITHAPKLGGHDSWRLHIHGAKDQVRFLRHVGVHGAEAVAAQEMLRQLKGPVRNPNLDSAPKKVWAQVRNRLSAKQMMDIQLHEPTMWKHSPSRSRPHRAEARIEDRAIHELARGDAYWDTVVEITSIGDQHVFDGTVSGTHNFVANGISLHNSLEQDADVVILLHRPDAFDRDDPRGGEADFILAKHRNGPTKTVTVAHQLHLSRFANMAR
Put plainly: DnaB intein splicing inhibitors, dose response, biochemical, cell-free fluorescence (AID 449749). Type of test: functional.

Test [7] has as its target T3, Histone-lysine N-methyltransferase NSD2 (Homo sapiens, UniProt O96028).
T3 sequence (O96028 whole entry): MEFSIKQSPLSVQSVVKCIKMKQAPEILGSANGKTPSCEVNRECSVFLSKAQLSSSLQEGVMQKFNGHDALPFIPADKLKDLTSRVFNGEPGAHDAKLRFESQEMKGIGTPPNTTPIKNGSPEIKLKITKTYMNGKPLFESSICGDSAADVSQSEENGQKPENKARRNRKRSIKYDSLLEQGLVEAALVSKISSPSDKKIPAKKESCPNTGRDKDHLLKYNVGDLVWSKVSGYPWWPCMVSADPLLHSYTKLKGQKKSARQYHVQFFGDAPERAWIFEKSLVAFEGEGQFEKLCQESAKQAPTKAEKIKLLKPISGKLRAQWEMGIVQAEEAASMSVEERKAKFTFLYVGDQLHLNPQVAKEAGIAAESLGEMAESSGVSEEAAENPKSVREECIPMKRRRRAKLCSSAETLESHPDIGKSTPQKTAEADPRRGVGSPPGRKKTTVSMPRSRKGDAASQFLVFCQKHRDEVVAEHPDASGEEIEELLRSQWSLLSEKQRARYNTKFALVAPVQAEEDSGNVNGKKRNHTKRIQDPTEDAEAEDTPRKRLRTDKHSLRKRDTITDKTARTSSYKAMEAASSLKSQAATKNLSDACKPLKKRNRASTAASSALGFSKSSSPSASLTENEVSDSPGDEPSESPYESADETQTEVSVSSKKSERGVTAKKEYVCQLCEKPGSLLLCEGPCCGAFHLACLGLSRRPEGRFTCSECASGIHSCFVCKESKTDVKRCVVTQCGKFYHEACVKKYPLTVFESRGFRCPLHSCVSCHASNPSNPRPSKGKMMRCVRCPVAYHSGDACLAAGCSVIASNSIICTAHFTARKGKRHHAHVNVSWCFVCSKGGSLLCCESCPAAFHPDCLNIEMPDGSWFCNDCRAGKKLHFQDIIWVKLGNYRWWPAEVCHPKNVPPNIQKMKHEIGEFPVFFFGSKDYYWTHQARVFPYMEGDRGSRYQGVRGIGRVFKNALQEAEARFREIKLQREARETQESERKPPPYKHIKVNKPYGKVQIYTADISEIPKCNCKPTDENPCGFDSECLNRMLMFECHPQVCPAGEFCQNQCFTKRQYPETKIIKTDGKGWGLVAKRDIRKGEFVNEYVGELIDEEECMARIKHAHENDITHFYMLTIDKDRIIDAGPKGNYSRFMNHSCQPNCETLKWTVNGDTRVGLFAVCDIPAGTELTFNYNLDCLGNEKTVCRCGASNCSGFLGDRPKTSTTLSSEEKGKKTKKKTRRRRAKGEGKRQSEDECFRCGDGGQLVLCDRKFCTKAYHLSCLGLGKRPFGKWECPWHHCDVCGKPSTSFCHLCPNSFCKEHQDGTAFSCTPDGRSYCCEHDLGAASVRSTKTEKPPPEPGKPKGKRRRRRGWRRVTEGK
In kind it is biochemical.

Active and inactive are the calls of the source. For most assays here, no stated cut-off is given here; in the data, actives have a measured EC50 and inactives only a lower limit. Bounds are passed on as bounds.

Induced myeloid leukemia cell differentiation protein Mcl-1, sequence (Q07820 whole entry): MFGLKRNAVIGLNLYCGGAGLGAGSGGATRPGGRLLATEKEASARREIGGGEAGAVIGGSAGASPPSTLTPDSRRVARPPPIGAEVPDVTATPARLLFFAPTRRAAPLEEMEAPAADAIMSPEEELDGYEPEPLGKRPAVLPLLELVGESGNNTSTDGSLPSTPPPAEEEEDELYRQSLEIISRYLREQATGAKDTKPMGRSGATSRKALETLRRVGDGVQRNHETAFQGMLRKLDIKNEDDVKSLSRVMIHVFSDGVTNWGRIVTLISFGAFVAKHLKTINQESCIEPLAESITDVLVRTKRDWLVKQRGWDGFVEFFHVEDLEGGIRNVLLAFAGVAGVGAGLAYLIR

Turning to `CC(=O)N(C1=C(Cl)C(=O)c2ccccc2C1=O)C1CCCCC1`, the EC50 in test [1] was 20.5 µM (active); in test [2], 8.18 µM (active); in test [3] it was 3.26 µM (active); in test [5], > 150 µM (not active). The IC50 in test [4] was 14.5 µM (active). Moreover, the AC50 in test [6] was 2.98 µM (active).

Take `Oc1ccc(-c2cn3c(n2)SCC3)cc1O`: the EC50 in test [2] is 1.77 µM (active). In test [4], the IC50 was 2.26 µM (active). Also, in test [7], the AC50 was 2.95 µM (active).

Regarding `Cc1ccc(NC2=C/C(=N\S(=O)(=O)c3cccs3)c3ccccc3C2=O)c(C)c1`, the EC50 in test [1] is 8.59 µM (inconclusive); in test [3], < 6 µM (inconclusive); in test [5], 3.08 µM (active). Besides, the AC50 in test [6] is 0.339 µM (active).

Turning to `COc1ccc(/C=N/NC(=O)c2nn(-c3ccccc3)c(=O)c3c(N)scc23)cc1`, in test [7], the AC50 was > 20 µM (inactive).
